Test results from US4684664A, “Derivatives of β-(4-isocyano-1,2,3,4-diepoxycyclopentyl) acrylic acid” (Kureha Kagaku Kogyo Kabushiki Kaisha, priority 1984, dated 1987).
≈ marks a conversion by molar mass, not a printed value.

Key:
Format in all cases: cell-based
[1] = tested on: Staphylococcus aureus FDA 209PJc-1; test: Antibacterial activity, agar-dilution MIC, organism No. 1; settings: Staphylococcus aureus, FDA209PJC1; Organism No. 1, bouillon-agar; read-out: Minimum Inhibitory Concentration
Description: (§1) Agar-dilution method was used for determination of the antibacterial activity and antifungal activity while using bouillon-agar culture medium, and the minimum inhibitory concentration of the specimen was expressed by μg/ml of the culture medium.

[2] = tested on: Staphylococcus aureus Terajima; test: Antibacterial activity, agar-dilution MIC, organism No. 2; settings: Staphylococcus aureus; Organism No. 2, bouillon-agar; read-out: Minimum Inhibitory Concentration
Description: as §1

[3] = tested on: Staphylococcus aureus MS 353; test: Antibacterial activity, agar-dilution MIC, organism No. 3; settings: Staphylococcus aureus, MS353; Organism No. 3, bouillon-agar; read-out: Minimum Inhibitory Concentration
Description: as §1

[4] = tested on: Streptococcus pyogenes Cook; test: Antibacterial activity, agar-dilution MIC, organism No. 4; settings: Streptococcus pyogenes; Organism No. 4, bouillon-agar; read-out: Minimum Inhibitory Concentration
Description: as §1

[5] = tested on: Escherichia coli NIHJ-JC-2; test: Antibacterial activity, agar-dilution MIC, organism No. 5; settings: Escherichia coli, NIHJJC2; Organism No. 5, bouillon-agar; read-out: Minimum Inhibitory Concentration
Description: as §1

[6] = tested on: Escherichia coli K12 C600 IAM 1264; test: Antibacterial activity, agar-dilution MIC, organism No. 6; settings: Escherichia coli, IAM1264; Organism No. 6, bouillon-agar; read-out: Minimum Inhibitory Concentration
Description: as §1

[7] = tested on: Klebsiella pneumoniae PCI-602; test: Antibacterial activity, agar-dilution MIC, organism No. 7; settings: Klebsiella pneumoniae, PCI602; Organism No. 7, bouillon-agar; read-out: Minimum Inhibitory Concentration
Description: as §1

[8] = tested on: Salmonella typhimurium IID 971; test: Antibacterial activity, agar-dilution MIC, organism No. 8; settings: Salmonella enterica; Organism No. 8, bouillon-agar; read-out: Minimum Inhibitory Concentration
Description: as §1

[9] = tested on: Salmonella typhi 901; test: Antibacterial activity, agar-dilution MIC, organism No. 9; settings: Salmonella enterica, TYPHI, read-out: Minimum Inhibitory Concentration
Description: as §1

[10] = tested on: Salmonella paratyphi-A 1015; test: Antibacterial activity, agar-dilution MIC, organism No. 10; settings: Salmonella enterica, PARATYPHI, read-out: Minimum Inhibitory Concentration
Description: as §1

[11] = tested on: Salmonella shottmuelleri 8006; test: Antibacterial activity, agar-dilution MIC, organism No. 11; settings: Salmonella, 8006; Organism No. 11, bouillon-agar; read-out: Minimum Inhibitory Concentration
Description: as §1

[12] = tested on: Salmonella enteritidis G 14; test: Antibacterial activity, agar-dilution MIC, organism No. 12; settings: Salmonella enterica, ENTERITIDIS; Organism No. 12, bouillon-agar; read-out: Minimum Inhibitory Concentration
Description: as §1

[13] = tested on: Bacillus subtilis ATCC 6633; test: Antibacterial activity, agar-dilution MIC, organism No. 14; settings: Bacillus subtilis, ATCC6633; Organism No. 14, bouillon-agar; read-out: Minimum Inhibitory Concentration
Description: as §1

[14] = tested on: Pseudomonas aeruginosa IFO 3445; test: Antibacterial activity, agar-dilution MIC, organism No. 15; settings: Pseudomonas aeruginosa, IFO3445; Organism No. 15, bouillon-agar; read-out: Minimum Inhibitory Concentration
Description: as §1

[15] = tested on: Pseudomonas aeruginosa NCTC 10490; test: Antibacterial activity, agar-dilution MIC, organism No. 16; settings: Pseudomonas aeruginosa, NCTC10490; Organism No. 16, bouillon-agar; read-out: Minimum Inhibitory Concentration
Description: as §1

[16] = tested on: Pseudomonas aeruginosa PAO 1; test: Antibacterial activity, agar-dilution MIC, organism No. 17; settings: Pseudomonas aeruginosa, PAO1; Organism No. 17, bouillon-agar; read-out: Minimum Inhibitory Concentration
Description: as §1

[17] = tested on: Proteus morganii IFO 3848; test: Antibacterial activity, agar-dilution MIC, organism No. 18; settings: Morganella morganii, IFO3848; Organism No. 18, bouillon-agar; read-out: Minimum Inhibitory Concentration
Description: as §1

[18] = tested on: Proteus mirabilis IFO 3849; test: Antibacterial activity, agar-dilution MIC, organism No. 19; settings: Proteus mirabilis, IFO3849; Organism No. 19, bouillon-agar; read-out: Minimum Inhibitory Concentration
Description: as §1

[19] = tested on: Proteus vulgaris OX-19; test: Antibacterial activity, agar-dilution MIC, organism No. 20; settings: Proteus vulgaris, OX19; Organism No. 20, bouillon-agar; read-out: Minimum Inhibitory Concentration
Description: as §1

[20] = tested on: Proteus vulgaris HX-19; test: Antibacterial activity, agar-dilution MIC, organism No. 21; settings: Proteus vulgaris, HX19; Organism No. 21, bouillon-agar; read-out: Minimum Inhibitory Concentration
Description: as §1

[21] = tested on: Proteus rettgeri IFO 3850; test: Antibacterial activity, agar-dilution MIC, organism No. 22; settings: Providencia rettgeri, IFO3850; Organism No. 22, bouillon-agar; read-out: Minimum Inhibitory Concentration
Description: as §1

[22] = tested on: Enterobacter aerogenes ATCC 13048; test: Antibacterial activity, agar-dilution MIC, organism No. 23; settings: Klebsiella aerogenes, ATCC13048; Organism No. 23, bouillon-agar; read-out: Minimum Inhibitory Concentration
Description: as §1

[23] = tested on: Enterobacter cloacae 963; test: Antibacterial activity, agar-dilution MIC, organism No. 24; settings: Enterobacter cloacae, 963; Organism No. 24, bouillon-agar; read-out: Minimum Inhibitory Concentration
Description: as §1

[24] = tested on: Micrococcus luteus ATCC 9341; test: Antibacterial activity, agar-dilution MIC, organism No. 25; settings: Micrococcus luteus, ATCC9341; Organism No. 25, bouillon-agar; read-out: Minimum Inhibitory Concentration
Description: as §1

[25] = tested on: Streptococcus pyogenes IFO 3340; test: Antibacterial activity, agar-dilution MIC, organism No. 26; settings: Streptococcus pyogenes, IFO3340; Organism No. 26, bouillon-agar; read-out: Minimum Inhibitory Concentration
Description: as §1

[26] = tested on: Streptococcus faecium IFO 3826; test: Antibacterial activity, agar-dilution MIC, organism No. 27; settings: Enterococcus faecium, IFO3826; Organism No. 27, bouillon-agar; read-out: Minimum Inhibitory Concentration
Description: as §1

[27] = tested on: Mycoplasma pneumoniae IID817; test: Antimycoplasmal activity, MIC by phenol red colour change, organism No. 28; settings: Mycoplasma, IID817; Organism No. 28, PPLO broth + 1% glucose, 37° C.; read-out: Minimum Inhibitory Concentration (MIC)
Method: Mycoplasma pneumoniae IID817 was used as the test microorganism in a culture medium prepared by adding 1% of glucose to "PPLO broth (manufactured by Difco Co.) liquid culture medium" at 37° C. with phenol red as an indicator, thereby culturing the test microorganism.

[28] = tested on: Candida albicans IAM 4905; test: Antifungal activity, agar-dilution MIC, organism No. 29; settings: Candida albicans, IAM4905; Organism No. 29, bouillon-agar; read-out: Minimum Inhibitory Concentration
Description: as §1

[29] = tested on: Aspergillus niger IFO 6342; test: Antifungal activity, agar-dilution MIC, organism No. 30; settings: Aspergillus niger, IFO6342; Organism No. 30, bouillon-agar; read-out: Minimum Inhibitory Concentration
Description: as §1

Compound	MIC [1]	MIC [2]	MIC [3]	MIC [4]	MIC [5]	MIC [6]	MIC [7]	MIC [8]	MIC [9]	MIC [10]	MIC [11]	MIC [12]	MIC [13]	MIC [14]	MIC [15]	MIC [16]	MIC [17]	MIC [18]	MIC [19]	MIC [20]	also measured
[C-]#[N+]C12CC3(/C=C/C(=O)NCc4ccccc4)OC3C1O2 (stereo not drawn) [Compound No. 24]	0.78 µg/mL (≈ 2.76 µM)	1.56 µg/mL (≈ 5.53 µM)	0.78 µg/mL (≈ 2.76 µM)	6.25 µg/mL (≈ 22.1 µM)	12.5 µg/mL (≈ 44.3 µM)	6.25 µg/mL (≈ 22.1 µM)	1.56 µg/mL (≈ 5.53 µM)	6.25 µg/mL (≈ 22.1 µM)	3.13 µg/mL (≈ 11.1 µM)	1.56 µg/mL (≈ 5.53 µM)	0.78 µg/mL (≈ 2.76 µM)	1.56 µg/mL (≈ 5.53 µM)	12.5 µg/mL (≈ 44.3 µM)	> 100 µg/mL	> 100 µg/mL	> 100 µg/mL	1.56 µg/mL (≈ 5.53 µM)	12.5 µg/mL (≈ 44.3 µM)	0.78 µg/mL (≈ 2.76 µM)	< 0.05 µg/mL	MIC [21]: 3.13 µg/mL (≈ 11.1 µM); MIC [22]: > 100 µg/mL; MIC [23]: > 100 µg/mL; MIC [24]: < 0.05 µg/mL; MIC [25]: 6.25 µg/mL (≈ 22.1 µM); MIC [26]: 1.56 µg/mL (≈ 5.53 µM); MIC [27]: < 0.2 µg/mL; MIC [28]: 0.2 µg/mL (≈ 0.708 µM); MIC [29]: 1.56 µg/mL (≈ 5.53 µM)
[C-]#[N+]C12CC3(/C=C/C(=O)N(C(=O)NC4CCCCC4)C4CCCCC4)OC3C1O2 (stereo not drawn) [Compound No. 25]	0.1 µg/mL (≈ 0.25 µM)	0.78 µg/mL (≈ 1.95 µM)	0.78 µg/mL (≈ 1.95 µM)	1.56 µg/mL (≈ 3.9 µM)	12.5 µg/mL (≈ 31.3 µM)	6.25 µg/mL (≈ 15.6 µM)	100 µg/mL (≈ 250 µM)	100 µg/mL (≈ 250 µM)	100 µg/mL (≈ 250 µM)	0.1 µg/mL (≈ 0.25 µM)	0.1 µg/mL (≈ 0.25 µM)	100 µg/mL (≈ 250 µM)	0.39 µg/mL (≈ 0.976 µM)	> 100 µg/mL	> 100 µg/mL	> 100 µg/mL	> 100 µg/mL	> 200 µg/mL	25 µg/mL (≈ 62.6 µM)	0.1 µg/mL (≈ 0.25 µM)	MIC [21]: > 200 µg/mL; MIC [22]: > 100 µg/mL; MIC [23]: 50 µg/mL (≈ 125 µM); MIC [24]: < 0.05 µg/mL; MIC [25]: 6.25 µg/mL (≈ 15.6 µM); MIC [26]: 6.25 µg/mL (≈ 15.6 µM); MIC [27]: 1.56 µg/mL; MIC [28]: 3.13 µg/mL (≈ 7.83 µM); MIC [29]: 6.25 µg/mL (≈ 15.6 µM)
[C-]#[N+]C12CC3(/C=C/C(=O)N[C@@H](CCC(=O)OC)C(=O)OC)OC3C1O2 (stereo partly drawn) [Compound No. 26]	25 µg/mL (≈ 71.4 µM)	100 µg/mL (≈ 285 µM)	25 µg/mL (≈ 71.4 µM)	50 µg/mL (≈ 143 µM)	100 µg/mL (≈ 285 µM)	100 µg/mL (≈ 285 µM)	50 µg/mL (≈ 143 µM)	100 µg/mL (≈ 285 µM)	50 µg/mL (≈ 143 µM)	50 µg/mL (≈ 143 µM)	50 µg/mL (≈ 143 µM)	50 µg/mL (≈ 143 µM)	100 µg/mL (≈ 285 µM)	> 200 µg/mL	> 200 µg/mL	> 200 µg/mL	100 µg/mL (≈ 285 µM)	> 200 µg/mL	25 µg/mL (≈ 71.4 µM)	12.5 µg/mL (≈ 35.7 µM)	MIC [21]: > 200 µg/mL; MIC [22]: > 200 µg/mL; MIC [23]: > 200 µg/mL; MIC [24]: 12.5 µg/mL (≈ 35.7 µM); MIC [25]: 50 µg/mL (≈ 143 µM); MIC [26]: > 200 µg/mL; MIC [27]: 1.56 µg/mL; MIC [28]: 100 µg/mL (≈ 285 µM); MIC [29]: 100 µg/mL (≈ 285 µM)
